{"source": "patent US11306124B2", "about": "“Agonist agents of CD47 inducing programmed cell death and their use in the treatments of diseases associated with defects in programmed cell death” (SORBONNE UNIVERSITE, priority 2016, dated 2022)", "molecular_target": "T1, CD47 (Homo sapiens, UniProt Q08722)", "T1 construct": "MEC-1 or Jurkat membrane preparation is labeled using the Nanotemper NT-647 labeling kit; endogenous in cells; host or cells: Jurkat and/or MEC-1 cell membrane preparation", "T1 sequence (Q08722 19-323)": "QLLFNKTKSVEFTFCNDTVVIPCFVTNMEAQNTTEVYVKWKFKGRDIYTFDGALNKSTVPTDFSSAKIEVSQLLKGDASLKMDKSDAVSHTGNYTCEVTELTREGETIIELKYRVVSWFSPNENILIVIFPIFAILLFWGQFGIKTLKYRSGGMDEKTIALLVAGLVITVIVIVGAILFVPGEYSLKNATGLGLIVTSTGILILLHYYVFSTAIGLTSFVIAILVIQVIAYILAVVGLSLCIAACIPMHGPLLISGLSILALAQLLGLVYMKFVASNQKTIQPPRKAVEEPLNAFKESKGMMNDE", "experiment": "Binding affinity by Microscale Thermophoresis on labeled Jurkat and/or MEC-1 cell membrane preparation", "description": "FIG. 5 and FIG. 6. Binding curve measured by MST. The measurement method is based on the directed movement of molecules along a temperature gradient, an effect termed “thermophoresis”. A local temperature difference ΔT leads to a local change in molecule concentration (depletion or enrichment), quantified by the Soret coefficient ST: chot/ccold=exp(−STΔT). Jurkat or Mec-1 cell membrane preparations are labeled using the Nanotemper NT-647 labeling kit as described elsewhere.xliv The labeled preparation is eluted with PBS and stored at 4° C. A stock solution of each peptide is prepared in DMSO (5 mM) and then diluted with PBS. For the peptides evaluated by MST, we have kept the concentration of the NT.115-labeled membrane constant, while the concentration of the ligand (peptide) was varied. […]\nBinding affinity measurements. The binding affinities of peptides, here PKT16, PKTD1, PKTD10, PKTD10-1, PKTD10-3, PKTD10-5, PKDT10-7 and PKTD10-8 for a membrane preparation from Jurkat and/or MEC-1 cells were measured by Microscale Thermophoresis^xlv on a Monolith NT115-pico system (Nanotemper Technologies, Munich, Germany).\nBinding curve measured by MST. […] A local temperature difference ΔT leads to a local change in molecule concentration (depletion or enrichment), quantified by the Soret coefficient ST: chot/ccold=exp(−STΔT). […]", "note": "Residues, ends and D or L forms follow the SMILES beside them."}
{"compound": "CCCC[C@H](NC(=O)[C@@H](NC(=O)[C@@H](NC(=O)[C@H](Cc1ccc(O)cc1)NC(=O)[C@H](Cc1ccccc1)NC(=O)[C@H](CCCNC(=N)N)N(C)C(=O)[C@H](N)CCCCN)C(C)C)C(C)C)C(=O)N[C@@H](Cc1c[nH]c2ccccc12)C(=O)N[C@@H](CCCCN)C(=O)N[C@H](CCCCN)C(=O)O", "note": "[PKT16, (D)Lys-(N-Me)Arg-Phe-Tyr-Val-Val-Nle-Trp-Lys-(D)Lys] (HELM PEPTIDE1{[dK].[meR].F.Y.V.V.[Nle].W.K.[dK]}$$$$V2.0; N-terminus and C-terminus assumed)", "values": [{"measurement": "binding affinities (Kd), order of magnitude in words", "result": "micromolar range"}]}
